Values quoted from earlier work as cited in publication PMC6151660 (Molecules : A Journal of Synthetic Chemistry and Natural …, 2017).

Test system: M. tuberculosis, H37Rv
Settings: cited from earlier work

Question: With `CO[C@@H]1[C@@H](OC(N)=O)[C@@H](O)[C@H](Oc2ccc3c(O)c(NC(=O)c4ccc(O)c(CC=C(C)C)c4)c(=O)oc3c2C)OC1(C)C` [Novobiocin] as the molecule, how does the MIC read?
Answer: approximately 6.5 µM
